According to the supplement of paper PMC10307832:

Assays:
Assay in all cases: relative viability (nuclei count vs DMSO), 5 days (fraction); higher = more cells survive
[1] = compound: CC(C)N(CCCNC(=O)Nc1ccc(C(C)(C)C)cc1)C[C@H]1O[C@@H](n2ccc3c(N)ncnc32)[C@H](O)[C@@H]1O + CS(=O)(=O)N1CCN(Cc2cc3nc(-c4cccc5[nH]ncc45)nc(N4CCOCC4)c3s2)CC1 [Pictilisib] (partner 1 µM)
In short: (§1)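 The day after seeding in 1536-well plates, lung cancer cell lines were treated by pin tool with a single drug, or with a fixed anchor-drug dose together with five library-drug doses (not always all listed) in √10 steps. After 5 days, a combined fix-and-stain solution (final 0.05% Triton X-100, 1% formaldehyde, 1 ug/ml Hoechst) was added. Nuclei counted on 4× images gave relative viability as treated counts over vehicle counts, reported as the median of duplicate plates.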

[2] = compound: CC(C)N(CCCNC(=O)Nc1ccc(C(C)(C)C)cc1)C[C@H]1O[C@@H](n2ccc3c(N)ncnc32)[C@H](O)[C@@H]1O + COc1cc2c(Oc3ccc(NC(=O)C4(C(=O)Nc5ccc(F)cc5)CC4)cc3F)ccnc2cc1OCCCN1CCOCC1 [Foretinib] (partner 0.25 µM)
In short: as §1

Shikonin + Dasatinib = compound: CC(C)=CC[C@@H](O)C1=CC(=O)c2c(O)ccc(O)c2C1=O [Shikonin] + Cc1nc(Nc2ncc(C(=O)Nc3c(C)cccc3Cl)s2)cc(N2CCN(CCO)CC2)n1 [Dasatinib] (partner 0.075 µM)
In short: as §1

[3] = compound: CC(C)N(CCCNC(=O)Nc1ccc(C(C)(C)C)cc1)C[C@H]1O[C@@H](n2ccc3c(N)ncnc32)[C@H](O)[C@@H]1O + CC(=O)Nc1cccc(-n2c(=O)n(C3CC3)c(=O)c3c(Nc4ccc(I)cc4F)n(C)c(=O)c(C)c32)c1 [Trametinib] (partner 0.02 µM)
In short: as §1

NCI-H3122
relative viability ([1]; first compound 0.08 µM): 0.653
relative viability ([1]; first compound 0.253 µM): 0.576
relative viability ([1]; first compound 0.8 µM): 0.634
relative viability ([1]; first compound 2.53 µM): 0.493
relative viability ([1]; first compound 8 µM): 0.553
relative viability ([2]; first compound 0.08 µM): 0.887
relative viability ([2]; first compound 0.253 µM): 0.951
relative viability ([2]; first compound 0.8 µM): 0.979
relative viability ([2]; first compound 2.53 µM): 0.922
relative viability ([2]; first compound 8 µM): 0.887
relative viability (Shikonin + Dasatinib; first compound 0.01 µM): 0.882
relative viability (Shikonin + Dasatinib; first compound 0.1 µM): 0.761
relative viability (Shikonin + Dasatinib; first compound 0.3162 µM): 0.969
relative viability (Shikonin + Dasatinib; first compound 1 µM): 0.861
relative viability ([3]; first compound 0.08 µM): 0.242
relative viability ([3]; first compound 0.253 µM): 0.299
relative viability ([3]; first compound 0.8 µM): 0.202
relative viability ([3]; first compound 2.53 µM): 0.242
relative viability ([3]; first compound 8 µM): 0.247

NCI-H358
relative viability ([1]; first compound 0.08 µM): 0.356
relative viability ([1]; first compound 0.253 µM): 0.335
relative viability ([1]; first compound 0.8 µM): 0.317
relative viability ([1]; first compound 2.53 µM): 0.359
relative viability ([1]; first compound 8 µM): 0.342
relative viability ([2]; first compound 0.08 µM): 0.548
relative viability ([2]; first compound 0.253 µM): 0.63
relative viability ([2]; first compound 0.8 µM): 0.67
relative viability ([2]; first compound 2.53 µM): 0.662
relative viability ([2]; first compound 8 µM): 0.58
relative viability (Shikonin + Dasatinib; first compound 0.01 µM): 0.145
relative viability (Shikonin + Dasatinib; first compound 0.1 µM): 0.189
relative viability (Shikonin + Dasatinib; first compound 0.3162 µM): 0.148
relative viability (Shikonin + Dasatinib; first compound 1 µM): 0.157
relative viability ([3]; first compound 0.08 µM): 0.135
relative viability ([3]; first compound 0.253 µM): 0.137
relative viability ([3]; first compound 0.8 µM): 0.132
relative viability ([3]; first compound 2.53 µM): 0.13
relative viability ([3]; first compound 8 µM): 0.138

NCI-H1944
relative viability ([1]; first compound 0.08 µM): 0.314
relative viability ([1]; first compound 0.253 µM): 0.292
relative viability ([1]; first compound 0.8 µM): 0.285
relative viability ([1]; first compound 2.53 µM): 0.384
relative viability ([1]; first compound 8 µM): 0.366
relative viability ([2]; first compound 0.08 µM): 0.811
relative viability ([2]; first compound 0.253 µM): 0.88
relative viability ([2]; first compound 0.8 µM): 0.958
relative viability ([2]; first compound 2.53 µM): 0.919
relative viability ([2]; first compound 8 µM): 0.882
relative viability (Shikonin + Dasatinib; first compound 0.01 µM): 0.193
relative viability (Shikonin + Dasatinib; first compound 0.1 µM): 0.247
relative viability (Shikonin + Dasatinib; first compound 0.3162 µM): 0.196
relative viability (Shikonin + Dasatinib; first compound 1 µM): 0.158
relative viability ([3]; first compound 0.08 µM): 0.362
relative viability ([3]; first compound 0.253 µM): 0.39
relative viability ([3]; first compound 0.8 µM): 0.372
relative viability ([3]; first compound 2.53 µM): 0.439
relative viability ([3]; first compound 8 µM): 0.448

EPLC-272H
relative viability ([1]; first compound 0.08 µM): 0.286
relative viability ([1]; first compound 0.253 µM): 0.253
relative viability ([1]; first compound 0.8 µM): 0.314
relative viability ([1]; first compound 2.53 µM): 0.284
relative viability ([1]; first compound 8 µM): 0.322
relative viability ([2]; first compound 0.08 µM): 0.688
relative viability ([2]; first compound 0.253 µM): 0.469
relative viability ([2]; first compound 0.8 µM): 0.73
relative viability ([2]; first compound 2.53 µM): 0.845
relative viability ([2]; first compound 8 µM): 0.669
relative viability (Shikonin + Dasatinib; first compound 0.01 µM): 0.34
relative viability (Shikonin + Dasatinib; first compound 0.1 µM): 0.322
relative viability (Shikonin + Dasatinib; first compound 0.3162 µM): 0.315
relative viability (Shikonin + Dasatinib; first compound 1 µM): 0.398
relative viability ([3]; first compound 0.08 µM): 0.246
relative viability ([3]; first compound 0.253 µM): 0.273
relative viability ([3]; first compound 0.8 µM): 0.27
relative viability ([3]; first compound 2.53 µM): 0.333
relative viability ([3]; first compound 8 µM): 0.298

NCI-H1915
relative viability ([1]; first compound 0.08 µM): 0.939
relative viability ([1]; first compound 0.253 µM): 0.879
relative viability ([1]; first compound 0.8 µM): 0.868
relative viability ([1]; first compound 2.53 µM): 0.912
relative viability ([1]; first compound 8 µM): 0.808
relative viability ([2]; first compound 0.08 µM): 1.02
relative viability ([2]; first compound 0.253 µM): 1.07
relative viability ([2]; first compound 0.8 µM): 1.06
relative viability ([2]; first compound 2.53 µM): 1
relative viability ([2]; first compound 8 µM): 1.03
relative viability (Shikonin + Dasatinib; first compound 0.01 µM): 0.316
relative viability (Shikonin + Dasatinib; first compound 0.1 µM): 0.35
relative viability (Shikonin + Dasatinib; first compound 0.3162 µM): 0.3
relative viability (Shikonin + Dasatinib; first compound 1 µM): 0.341
relative viability ([3]; first compound 0.08 µM): 0.3
relative viability ([3]; first compound 0.253 µM): 0.306
relative viability ([3]; first compound 0.8 µM): 0.302
relative viability ([3]; first compound 2.53 µM): 0.311
relative viability ([3]; first compound 8 µM): 0.292

NCI-H650
relative viability ([1]; first compound 0.08 µM): 0.807
relative viability ([1]; first compound 0.253 µM): 0.907
relative viability ([1]; first compound 0.8 µM): 0.887
relative viability ([1]; first compound 2.53 µM): 0.867
relative viability ([1]; first compound 8 µM): 0.824
relative viability ([2]; first compound 0.08 µM): 0.966
relative viability ([2]; first compound 0.253 µM): 1.03
relative viability ([2]; first compound 0.8 µM): 1.05
relative viability ([2]; first compound 2.53 µM): 1.07
relative viability ([2]; first compound 8 µM): 0.962
relative viability (Shikonin + Dasatinib; first compound 0.01 µM): 0.462
relative viability (Shikonin + Dasatinib; first compound 0.1 µM): 0.449
relative viability (Shikonin + Dasatinib; first compound 0.3162 µM): 0.414
relative viability (Shikonin + Dasatinib; first compound 1 µM): 0.464
relative viability ([3]; first compound 0.08 µM): 0.859
relative viability ([3]; first compound 0.253 µM): 1.06
relative viability ([3]; first compound 0.8 µM): 0.875
relative viability ([3]; first compound 2.53 µM): 1.03
relative viability ([3]; first compound 8 µM): 0.994

NCI-H441
relative viability ([1]; first compound 0.08 µM): 0.442
relative viability ([1]; first compound 0.253 µM): 0.423
relative viability ([1]; first compound 0.8 µM): 0.361
relative viability ([1]; first compound 2.53 µM): 0.539
relative viability ([1]; first compound 8 µM): 0.47
relative viability ([2]; first compound 0.08 µM): 1.01
relative viability ([2]; first compound 0.253 µM): 0.913
relative viability ([2]; first compound 2.53 µM): 0.801
relative viability ([2]; first compound 8 µM): 0.968
relative viability (Shikonin + Dasatinib; first compound 0.01 µM): 0.632
relative viability (Shikonin + Dasatinib; first compound 0.1 µM): 0.466
relative viability (Shikonin + Dasatinib; first compound 0.3162 µM): 0.631
relative viability (Shikonin + Dasatinib; first compound 1 µM): 0.675
relative viability ([3]; first compound 0.08 µM): 0.407
relative viability ([3]; first compound 0.253 µM): 0.432
relative viability ([3]; first compound 2.53 µM): 0.498
relative viability ([3]; first compound 8 µM): 0.474

NCI-H23
relative viability ([1]; first compound 0.08 µM): 0.455
relative viability ([1]; first compound 0.8 µM): 0.478
relative viability ([1]; first compound 2.53 µM): 0.568
relative viability ([1]; first compound 8 µM): 0.454
relative viability ([2]; first compound 0.08 µM): 0.891
relative viability ([2]; first compound 0.253 µM): 0.964
relative viability ([2]; first compound 0.8 µM): 1.02
relative viability ([2]; first compound 2.53 µM): 0.937
relative viability ([2]; first compound 8 µM): 0.945
relative viability (Shikonin + Dasatinib; first compound 0.01 µM): 0.643
relative viability (Shikonin + Dasatinib; first compound 0.1 µM): 0.883
relative viability (Shikonin + Dasatinib; first compound 0.3162 µM): 0.78
relative viability (Shikonin + Dasatinib; first compound 1 µM): 0.944
relative viability ([3]; first compound 0.08 µM): 0.336
relative viability ([3]; first compound 0.8 µM): 0.361
relative viability ([3]; first compound 2.53 µM): 0.547
relative viability ([3]; first compound 8 µM): 0.373

NCI-H661
relative viability ([1]; first compound 0.08 µM): 0.542
relative viability ([1]; first compound 0.253 µM): 0.281
relative viability ([1]; first compound 0.8 µM): 0.428
relative viability ([1]; first compound 2.53 µM): 0.376
relative viability ([1]; first compound 8 µM): 0.422
relative viability ([2]; first compound 0.08 µM): 1.08
relative viability ([2]; first compound 0.253 µM): 1.13
relative viability ([2]; first compound 0.8 µM): 1.09
relative viability ([2]; first compound 2.53 µM): 1.11
relative viability ([2]; first compound 8 µM): 1.06
relative viability (Shikonin + Dasatinib; first compound 0.01 µM): 0.866
relative viability (Shikonin + Dasatinib; first compound 0.1 µM): 0.856
relative viability (Shikonin + Dasatinib; first compound 0.3162 µM): 0.816
relative viability (Shikonin + Dasatinib; first compound 1 µM): 0.983
relative viability ([3]; first compound 0.08 µM): 0.544
relative viability ([3]; first compound 0.253 µM): 0.551
relative viability ([3]; first compound 0.8 µM): 0.551
relative viability ([3]; first compound 2.53 µM): 0.675
relative viability ([3]; first compound 8 µM): 0.619
